Like-named read-outs stand apart in the source and are kept apart here.
Key:
[1] = system: HEL cells; test: Antiproliferation assay (7 days, Sulforhodamine B) in HEL fibroblasts; assay type: cell-based, human; settings: read-out: Antiproliferation EC50 HEL lung fibroblast
Description: (§1) Cells were detached from culture flasks using trypsin, counted, and plated in 96-well culture plates (250-1000 cells per well, depending on cell type). On the next day (defined as day 0), after cells attached to the bottom of plates, 5-fold serial dilutions of compounds were added in duplicate. No compound and 10 μM colchicine (cell division inhibitor) was added to control wells, which would represent 100% proliferation and 0% proliferation, respectively.
(§2) Seven days after addition of compounds, culture plates were treated with 10% trichloroacetic acid at 4° C. for 1 hr, then washed with water. This procedure allows cell-derived proteins to bind to the bottom surface of plates. Proteins were stained with 0.4% Sulforhodamine B in 1% acetic acid for 10 minutes, followed by extensive washing with 1% acetic acid. Remaining dye bound to the bottom of plates was dissolved in 10 mM Trizma base. This generated purple color that was quantified by measuring the absorbance at 510 nm wavelength, using spectrophotometer.
(§3) Cells were detached from culture flasks using trypsin, counted, and plated in 96-well culture plates ([…], depending on cell type). On the next day (defined as day 0), 5-fold serial dilutions of compounds were added in duplicate. Seven days after addition of compounds, culture plates were treated with 10% trichloroacetic acid at 4° C. for 1 hr and washed with water. This procedure allows cellular proteins to bind to the bottom surface of plates. Proteins were stained with 0.4% Sulforhodamine B in 1% acetic acid for 10 minutes, followed by extensive washing with 1% acetic acid. Remaining dye bound to the bottom of plates was solubilized in 10 mM Trizma base, generating purple color. Intensity of the color (proportional to cell number) was quantified by measuring the absorbance at 510 nm wavelength, using spectrophotometer. […] GraphPad Prism version 4.00 for Windows (GraphPad Software, San Diego Calif. USA) was used for the curve fitting and EC50 calculation.

[2] = system: SiHa cells; test: Antiproliferation assay (7 days, Sulforhodamine B) in SiHa cells; assay type: cell-based, human; settings: for Selectivity (HEL/SiHa): HEL EC50 divided by SiHa EC50; for Selectivity for SiHa cells compared with HEL cells: Example 80, also versus PHK keratinocytes, fold
Description: Antiproliferation assays measure effect of compounds on proliferation of cultured cells. Cells are cultured for 7 days in the presence of various concentrations of compounds. On the 7th day, cells are stained with dye, and intensity of staining (proportional to cell number) is measured by spectrophotometer.
as §1, §2, §3

[3] = system: PHK skin keratinocytes; test: cells; assay type: cell-based; settings: Homo sapiens, Keratinocyte; Table 79-3; read-out: Antiproliferation EC50 PHK skin keratinocytes
[4] = system: MS751 cells; test: Antiproliferation assay in MS751 cells; assay type: cell-based; settings: Homo sapiens, Table 79-4, read-out: Antiproliferation EC50 in HPV positive carcinoma cells MS-751 HPV18
[5] = system: SCC-4 cells; test: Antiproliferation assay in SCC-4 cells; assay type: cell-based; settings: Homo sapiens, Table 79-4, read-out: Antiproliferation EC50 in HPV negative carcinoma cells SCC-4 tongue
[6] = system: HeLa cells; test: Antiproliferation assay in HeLa cells; assay type: cell-based; settings: Homo sapiens, Table 79-4, read-out: Antiproliferation EC50 in HPV positive carcinoma cells HeLa HPV18
[7] = system: CK cervical keratinocytes; test: cells; assay type: cell-based; settings: Homo sapiens, Keratinocyte; Table 79-3; read-out: Antiproliferation EC50 CK cervical keratinocytes
[8] = system: CaSki cells; test: Antiproliferation assay in CaSki cells; assay type: cell-based; settings: Homo sapiens, Ca-Ski; Table 79-4; read-out: Antiproliferation EC50 in HPV positive carcinoma cells CaSki HPV16
[9] = system: SCC-9 cells; test: Antiproliferation assay in SCC-9 cells; assay type: cell-based; settings: Homo sapiens, Table 79-4, read-out: Antiproliferation EC50 in HPV negative carcinoma cells SCC-9 tongue
[10] = system: C-4 I cells; test: Antiproliferation assay in C-4 I cells; assay type: cell-based; settings: Homo sapiens, Table 79-4, read-out: Antiproliferation EC50 in HPV positive carcinoma cells C-41 HPV18
[11] = system: ME-180 cells; test: Antiproliferation assay in ME-180 cells; assay type: cell-based; settings: Homo sapiens, Table 79-4, read-out: Antiproliferation EC50 in HPV positive carcinoma cells ME-180 HPV39
[12] = system: HT-3 cells; test: Antiproliferation assay in HT-3 cells; assay type: cell-based; settings: Homo sapiens, Table 79-4, read-out: Antiproliferation EC50 in HPV negative carcinoma cells HT-3 cervix
[13] = system: HPV-16 SiHa cells; assay type: cell-based, human; settings: day 7, 0.2 μg/mL, Annexin V-Propidium iodide double staining
[14] = Table 79-2, 7 days, read-out: Antiproliferation EC50 SiHa cervical carcinoma (HPV16)
[15] = Homo sapiens, HEL, 168 h, Table 79-2, 7 days
[16] = Homo sapiens, SiHa, 168 h, Table 79-2, 7 days, read-out: Antiproliferation EC50 SiHa cervical carcinoma (HPV16)
[17] = Homo sapiens, SiHa, Table 79-3, read-out: Antiproliferation EC50 SiHa cervical carcinoma (HPV16)

Compound	Selectivity (HEL/SiHa) ([2]; Table 79-2)	EC50 [1, 15] [nM]	EC50 [2, 16] [nM]	also measured
Bleomycin	0.01	–	–	EC50 ([1]; Table 79-2, 7 days): 20.3 nM; EC50 [2, 14]: 3140 nM
COc1cc([C@@H]2c3cc4c(cc3[C@H](O)[C@H]3COC(=O)[C@H]23)OCO4)cc(OC)c1OC [Podofilox]	–	–	–	Selectivity for SiHa cells compared with HEL cells [2]: showed no selectivity
COc1cccc2c1C(=O)c1c(O)c3c(c(O)c1C2=O)C[C@@](O)(C(=O)CO)C[C@@H]3O[C@H]1C[C@H](N)[C@H](O)[C@H](C)O1 [Doxorubicin]	0.43	4.2	9.76	–
Nc1ccn([C@@H]2O[C@H](CO)[C@@H](O)[C@@H]2O)c(=O)n1 [AraC, cytarabine]	0.113	29	257	EC50 [3]: 147 nM; Selectivity for SiHa cells compared with HEL cells [2]: did not show such selectivity; EC50 [2, 17]: 257 nM; EC50 ([2]; Homo sapiens, SiHa, Table 79-4, read-out: Antiproliferation EC50 in HPV positive carcinoma cells SiHa HPV16): 257 nM; EC50 ([2]; Homo sapiens, six HPV positive cell lines: SiHa, CaSki, HeLa, MS751, C-4I, ME-180, read-out: Antiproliferation EC50 values, range over all cell lines): 94 to 257 nM; Selectivity (CK/SiHa) ([2]; Table 79-3): 0.4; Selectivity (PHK/SiHa) ([2]; Table 79-3): 0.57; EC50 [4]: 144 nM; EC50 [5]: 74 nM; EC50 [6]: 174 nM; EC50 [7]: 107 nM; EC50 [8]: 94 nM; EC50 [9]: 68 nM; EC50 [10]: 123 nM; EC50 [11]: 101 nM; EC50 [12]: 214 nM
CC[C@]1(O)C[C@@H]2CN(CCc3c([nH]c4ccccc34)[C@@](C(=O)OC)(c3cc4c(cc3OC)N(C)[C@H]3[C@@](O)(C(=O)OC)[C@H](OC(C)=O)[C@]5(CC)C=CCN6CC[C@]43[C@@H]65)C2)C1 [Vinblastine]	0.39	0.27	0.68	–
Cc1c2ccncc2c(C)c2c1[nH]c1ccccc12 [Ellipticine]	1.02	486	478	–
Nc1ccn(C[C@@H](CO)OCP(=O)(O)O)c(=O)n1 [Cidofovir]	0.3	28000	84000	–
CC[C@]1(O)C[C@H]2CN(CCc3c([nH]c4ccccc34)[C@@](C(=O)OC)(c3cc4c(cc3OC)N(C=O)[C@H]3[C@@](O)(C(=O)OC)[C@H](OC(C)=O)[C@]5(CC)C=CCN6CC[C@]43[C@@H]65)C2)C1 [Vincristine]	1.55	1.92	1.24	–
O=C1c2c(O)ccc(O)c2C(=O)c2c(NCCNCCO)ccc(NCCNCCO)c21 [Mitoxantrone]	<0.37	< 3.2	8.67	–
COc1cc([C@@H]2c3cc4c(cc3[C@@H](O[C@@H]3O[C@@H]5CO[C@@H](C)O[C@H]5[C@H](O)[C@H]3O)[C@H]3COC(=O)[C@H]23)OCO4)cc(OC)c1O [Etoposide]	0.31	144	469	–
Nc1nc2c(ncn2CCOCP(=O)(O)O)c(=O)[nH]1 [PMEG, 9-(2-phosphonylmethoxyethyl)guanine]	4.1	861	207	EC50 [3]: 101 nM; Selectivity for SiHa cells compared with HEL cells [2]: did not show such selectivity; EC50 [2, 17]: 207 nM; Selectivity (CK/SiHa) ([2]; Table 79-3): 2.4; Selectivity (PHK/SiHa) ([2]; Table 79-3): 0.48; EC50 [7]: 501 nM; % of apoptotic cells in the culture [13]: 1.2%
COc1cc2c(c(N)c1OC)C(=O)/C(=C\c1cc(C)c(O)c(C)c1)C2 [Indanosine, Indanocine]	–	–	–	EC50 ([1]; Homo sapiens, HEL, 168 h): 159 nM; EC50 ([2]; Homo sapiens, SiHa, 168 h, read-out: Antiproliferation EC50 SiHa cervical carcinoma (HPV16)): 588 nM
C[C@H]1O[C@@H](n2cc(F)c(=O)[nH]c2=O)[C@H](O)[C@@H]1O [Doxifluridine]	0.449	3930	8760	–
Nc1ccn([C@@H]2O[C@H](CO)[C@@H](O)C2(F)F)c(=O)n1 [gemcitabine]	–	–	–	Selectivity for SiHa cells compared with HEL cells [2]: did not show such selectivity
C[C@@]1(CO)[C@H](O)CC[C@@]2(C)[C@H]1CC[C@H]1C[C@@H]3C[C@@]12CC[C@]3(O)CO [Aphidicolin (+), Aphidicolin]	0.40	–	–	EC50 ([1]; Table 79-2, 7 days): 324 nM; EC50 [2, 14]: 856 nM
CN(C)/N=N/c1[nH]cnc1C(N)=O [Dacarba-zine, Dacarbazine]	3.98	29500	7400	–

From US20060046981A1, “Anti-nonmelanoma carcinoma compounds, compositions, and methods of use thereof” (GILEAD SCIENCES, INC., priority 2003, published 2006)
